Here are results for 12 molecules from US7734426B2 (priority 1999, dated 2010).

“Also recorded” adds a separate entry of the source. Where no end group is shown, it is not given here.

The subject of the first assay is NG-108-15 Cells. It is filed as cell-based.
Conditions: not given
Consider `C=C(C=O)C[C@@H]1C[C@H](O)[C@]2(C)O[C@@H]3C[C@@H]4O[C@@H]5C[C@]6(C)O[C@]7(C)CC[C@@H]8O[C@@H]9C[C@]%10(C)O[C@@H]%11C(C)=CC(=O)O[C@H]%11C[C@H]%10O[C@H]9C[C@@H](C)[C@H]8O[C@H]7C[C@H]6O[C@H]5C/C=C\[C@H]4O[C@H]3C[C@H]2O1` [brevetoxin], for which the Effect result is “Na^+ channel”, the “Onset Time” value is less than 60 s and the inhibit repetitive firing entry is “brevetoxin*”.
With `NC1=N[C@H](O)[C@H]2[C@H]3O[C@]4(O)O[C@@H]([C@@H](O)[C@@]2(N1)[C@@H]4O)[C@]3(O)CO` [tetrodotoxin], the Effect entry is given as “Na^+ channel”, the “Onset Time” value is less than 60 s, the “effect on the AP” value was “affected the AP” and the inhibit repetitive firing entry is listed as “tetrodotoxin*”.
With Charybdotoxin, the Effect entry was “Kca “BK”-type channel”, the “Onset Time” value is less than 60 s and the inhibit repetitive firing result is on record as “Charybdotoxin*”.
On the same counts, the results for `C[N+](C)(C)CCOC(N)=O` [carbachol] are “muscarinic receptor”, less than 60 s and “carbachol*”.
On the same counts, the results for `C[C@@H]1O[C@@H](O[C@H]2C[C@@H](O)[C@]3(CO)[C@H]4[C@H](O)C[C@]5(C)[C@@H](C6=CC(=O)OC6)CC[C@]5(O)[C@@H]4CC[C@]3(O)C2)[C@H](O)[C@H](O)[C@H]1O` [ouabain] are “Na^+—Ca^2+ pump; also recorded: inhibition”, less than 60 s and “ouabain*”.
On the same counts, the results for `COc1ccc(CCN(C)CCCC(C#N)(c2ccc(OC)c(OC)c2)C(C)C)cc1OC` (stereo not drawn) [verapamil] are “L-type Ca^2+ channel”, less than 60 s and “verapamil*”.
In the case of `C=C[C@H]1C[N@@]2CC[C@H]1C[C@H]2[C@H](O)c1ccnc2ccc(OC)cc12` [quinine], the Effect result is on record as “non-specific K^+ channel”, the “Onset Time” value was less than 60 s and the inhibit repetitive firing result is recorded as “quinine*”.
As for `COC(=O)C1=C(C)NC(C)=C(C(=O)OC)C1c1ccccc1[N+](=O)[O-]` [nifedipine], the inhibit repetitive firing result was “nifedipine*”.
Regarding `N=C(N)NC(=O)c1nc(Cl)c(N)nc1N` [amiloride], the Effect entry is reported as “L-type Ca^2+ channel”, the “Onset Time” value was less than 60 s and the inhibit repetitive firing entry is listed as “amiloride*”.

Another assay relates to CNS stem cells. Particulars: cited from earlier work.
With platelet-derived growth factor [PDGF], the “neuronal differentiation, % of the cells” value was 90%.

For the next assay, the system named is CA1 region of hippocampal slices. Particulars: cited from earlier work.
For the molecule `O=CC[C@@H](O)[C@H](O)[C@H](O)CO` [2-DG, 2-deoxy-D-glucose], the “effect on synaptic transmission” value was “reversibly suppresses synaptic transmission”.

A further assay deals with hippocampal interneurons. To be noted: cited from earlier work.
“CCK-8S (DYMGWMDF; not fully specified; UniProt P06307 96-103, looked up)”: the “effect on action potential frequency / currents” value was “increased action potential frequency or generated inward currents”.

The subject of the next assay is CA1 pyramidal cells in hippocampal slices. To be noted: cited from earlier work.
Take `C[N+](C)(C)CCOC(N)=O` [carbachol]: the “changes in the action potential” value is on record as “several reversible changes in the action potential”.
